Earlier results, collected in publication PMC8258280 (Virologica Sinica, 2021).

Tested on: SARS-CoV 3CL^pro
Conditions: read-out: IC50 against SARS-CoV 3CL^pro

## O=c1cc(-c2ccc(O)c(-c3c(O)cc(O)c4c(=O)cc(-c5ccc(O)cc5)oc34)c2)oc2cc(O)cc(O)c12 [amentoflavone]
  IC50: 8.3 µM
